Measurements published in US6410054B1, “Immediate release eplerenone compositions” (G. D. Searle & Co., priority 1998, dated 2002).

Test: Single dose study: urinary excretion of eplerenone and open lactone ring form
Type: in vivo, humans
Description: The study employed seven parallel dose groups of eight healthy male humans.
The plasma samples collected from subjects dosed with eplerenone were assayed for concentrations of eplerenone and the open lactone ring form of eplerenone. […] A subset of plasma samples was also assayed for testosterone levels. The urine collected was analyzed to determine concentrations and amounts of eplerenone and the open lactone ring form of eplerenone, the amount of sodium and potassium excreted, and the urinary log10 (sodium/potassium) ratio.

## COC(=O)C1CC2=CC(=O)CCC2(C)C23OC2CC2(C)C(CC[C@@]24CCC(=O)O4)C13 (stereo partly drawn) [eplerenone, methyl hydrogen 9,11α-epoxy-17α-hydroxy-3-oxopregn-4-ene-7α,21-dicarboxylate, γ-lactone]
10 mg dose, 0 to 2 hours
  Amount of Eplerenone Excreted in Urine: (21.6) mcg
  Concentration of Eplerenone Excreted in Urine: 278.0 ng/mL
10 mg dose, 0 to 24 hours
  Amount of Eplerenone Excreted in Urine: (78.8) mcg
10 mg dose, 2 to 4 hours
  Amount of Eplerenone Excreted in Urine: (35.8) mcg
  Concentration of Eplerenone Excreted in Urine: 191.1 ng/mL
10 mg dose, 4 to 6 hours
  Amount of Eplerenone Excreted in Urine: (16.5) mcg
  Concentration of Eplerenone Excreted in Urine: 107.2 ng/mL
10 mg dose, 6 to 8 hours
  Amount of Eplerenone Excreted in Urine: (7.6) mcg
  Concentration of Eplerenone Excreted in Urine: 63.8 ng/mL
10 mg dose, 8 to 10 hours
  Amount of Eplerenone Excreted in Urine: (0) mcg
  Concentration of Eplerenone Excreted in Urine: 0 ng/mL
10 mg dose, 10 to 12 hours
  Amount of Eplerenone Excreted in Urine: (0) mcg
  Concentration of Eplerenone Excreted in Urine: 0 ng/mL
10 mg dose, 12 to 14 hours
  Amount of Eplerenone Excreted in Urine: (0) mcg
  Concentration of Eplerenone Excreted in Urine: 0 ng/mL
10 mg dose, 14 to 16 hours
  Amount of Eplerenone Excreted in Urine: (0) mcg
  Concentration of Eplerenone Excreted in Urine: 0 ng/mL
10 mg dose, 16 to 24 hours
  Amount of Eplerenone Excreted in Urine: (0) mcg
  Concentration of Eplerenone Excreted in Urine: 0 ng/mL
10 mg dose, −9 to 0 hours
  Amount of Eplerenone Excreted in Urine: (0) mcg
  Concentration of Eplerenone Excreted in Urine: 0 ng/mL
50 mg dose, 0 to 2 hours
  Amount of Eplerenone Excreted in Urine: (99.2) mcg
  Concentration of Eplerenone Excreted in Urine: 1252.2 ng/mL
50 mg dose, 0 to 24 hours
  Amount of Eplerenone Excreted in Urine: (410.6) mcg
50 mg dose, 2 to 4 hours
  Amount of Eplerenone Excreted in Urine: (175.3) mcg
  Concentration of Eplerenone Excreted in Urine: 1064.6 ng/mL
50 mg dose, 4 to 6 hours
  Amount of Eplerenone Excreted in Urine: (60.6) mcg
  Concentration of Eplerenone Excreted in Urine: 518.3 ng/mL
50 mg dose, 6 to 8 hours
  Amount of Eplerenone Excreted in Urine: (30.7) mcg
  Concentration of Eplerenone Excreted in Urine: 307.3 ng/mL
50 mg dose, 8 to 10 hours
  Amount of Eplerenone Excreted in Urine: (27.6) mcg
  Concentration of Eplerenone Excreted in Urine: 172.4 ng/mL
50 mg dose, 10 to 12 hours
  Amount of Eplerenone Excreted in Urine: (16.5) mcg
  Concentration of Eplerenone Excreted in Urine: 72.7 ng/mL
50 mg dose, 12 to 14 hours
  Amount of Eplerenone Excreted in Urine: (11.3) mcg
  Concentration of Eplerenone Excreted in Urine: 23.1 ng/mL
50 mg dose, 14 to 16 hours
  Amount of Eplerenone Excreted in Urine: (1.5) mcg
  Concentration of Eplerenone Excreted in Urine: 21.6 ng/mL
50 mg dose, 16 to 24 hours
  Amount of Eplerenone Excreted in Urine: (4.0) mcg
  Concentration of Eplerenone Excreted in Urine: 13.1 ng/mL
50 mg dose, −9 to 0 hours
  Amount of Eplerenone Excreted in Urine: (0) mcg
  Concentration of Eplerenone Excreted in Urine: 0 ng/mL
100 mg dose, 0 to 2 hours
  Amount of Eplerenone Excreted in Urine: (360.2) mcg
  Concentration of Eplerenone Excreted in Urine: 2623.3 ng/mL
100 mg dose, 0 to 24 hours
  Amount of Eplerenone Excreted in Urine: (1271.4) mcg
100 mg dose, 2 to 4 hours
  Amount of Eplerenone Excreted in Urine: (407.6) mcg
  Concentration of Eplerenone Excreted in Urine: 2305.6 ng/mL
100 mg dose, 4 to 6 hours
  Amount of Eplerenone Excreted in Urine: (285.1) mcg
  Concentration of Eplerenone Excreted in Urine: 1157.3 ng/mL
100 mg dose, 6 to 8 hours
  Amount of Eplerenone Excreted in Urine: (158.8) mcg
  Concentration of Eplerenone Excreted in Urine: 627.6 ng/mL
100 mg dose, 8 to 10 hours
  Amount of Eplerenone Excreted in Urine: (69.1) mcg
  Concentration of Eplerenone Excreted in Urine: 362.9 ng/mL
100 mg dose, 10 to 12 hours
  Amount of Eplerenone Excreted in Urine: (44.7) mcg
  Concentration of Eplerenone Excreted in Urine: 146.6 ng/mL
100 mg dose, 12 to 14 hours
  Amount of Eplerenone Excreted in Urine: (26.6) mcg
  Concentration of Eplerenone Excreted in Urine: 110.3 ng/mL
100 mg dose, 14 to 16 hours
  Amount of Eplerenone Excreted in Urine: (6.6) mcg
  Concentration of Eplerenone Excreted in Urine: 36.5 ng/mL
100 mg dose, 16 to 24 hours
  Amount of Eplerenone Excreted in Urine: (2.7) mcg
  Concentration of Eplerenone Excreted in Urine: 7.1 ng/mL
100 mg dose, −9 to 0 hours
  Amount of Eplerenone Excreted in Urine: (0) mcg
  Concentration of Eplerenone Excreted in Urine: 0 ng/mL
300 mg dose, 0 to 2 hours
  Amount of Eplerenone Excreted in Urine: (677.7) mcg
  Concentration of Eplerenone Excreted in Urine: 9370.1 ng/mL
300 mg dose, 0 to 24 hours
  Amount of Eplerenone Excreted in Urine: (2872.3) mcg
300 mg dose, 2 to 4 hours
  Amount of Eplerenone Excreted in Urine: (873.7) mcg
  Concentration of Eplerenone Excreted in Urine: 6465.9 ng/mL
300 mg dose, 4 to 6 hours
  Amount of Eplerenone Excreted in Urine: (672.6) mcg
  Concentration of Eplerenone Excreted in Urine: 3865.2 ng/mL
300 mg dose, 6 to 8 hours
  Amount of Eplerenone Excreted in Urine: (337.0) mcg
  Concentration of Eplerenone Excreted in Urine: 2237.8 ng/mL
300 mg dose, 8 to 10 hours
  Amount of Eplerenone Excreted in Urine: (307.9) mcg
  Concentration of Eplerenone Excreted in Urine: 1208.6 ng/mL
300 mg dose, 10 to 12 hours
  Amount of Eplerenone Excreted in Urine: (162.4) mcg
  Concentration of Eplerenone Excreted in Urine: 542.4 ng/mL
300 mg dose, 12 to 14 hours
  Amount of Eplerenone Excreted in Urine: (97.4) mcg
  Concentration of Eplerenone Excreted in Urine: 419.6 ng/mL
300 mg dose, 14 to 16 hours
  Amount of Eplerenone Excreted in Urine: (52.2) mcg
  Concentration of Eplerenone Excreted in Urine: 292.6 ng/mL
300 mg dose, 16 to 24 hours
  Amount of Eplerenone Excreted in Urine: (50.4) mcg
  Concentration of Eplerenone Excreted in Urine: 126.4 ng/mL
300 mg dose, −9 to 0 hours
  Amount of Eplerenone Excreted in Urine: (0) mcg
  Concentration of Eplerenone Excreted in Urine: 0 ng/mL
1000 mg dose, 0 to 2 hours
  Amount of Eplerenone Excreted in Urine: (1482.0) mcg
  Concentration of Eplerenone Excreted in Urine: 17858.6 ng/mL
1000 mg dose, 0 to 24 hours
  Amount of Eplerenone Excreted in Urine: (17246.6) mcg
1000 mg dose, 2 to 4 hours
  Amount of Eplerenone Excreted in Urine: (5983.3) mcg
  Concentration of Eplerenone Excreted in Urine: 24460.3 ng/mL
1000 mg dose, 4 to 6 hours
  Amount of Eplerenone Excreted in Urine: (4041.5) mcg
  Concentration of Eplerenone Excreted in Urine: 13899.7 ng/mL
1000 mg dose, 6 to 8 hours
  Amount of Eplerenone Excreted in Urine: (2083.0) mcg
  Concentration of Eplerenone Excreted in Urine: 8782.1 ng/mL
1000 mg dose, 8 to 10 hours
  Amount of Eplerenone Excreted in Urine: (1853.9) mcg
  Concentration of Eplerenone Excreted in Urine: 4491.0 ng/mL
1000 mg dose, 10 to 12 hours
  Amount of Eplerenone Excreted in Urine: (1177.2) mcg
  Concentration of Eplerenone Excreted in Urine: 2361.1 ng/mL
1000 mg dose, 12 to 14 hours
  Amount of Eplerenone Excreted in Urine: (892.8) mcg
  Concentration of Eplerenone Excreted in Urine: 3183.7 ng/mL
1000 mg dose, 14 to 16 hours
  Amount of Eplerenone Excreted in Urine: (340.5) mcg
  Concentration of Eplerenone Excreted in Urine: 1405.2 ng/mL
1000 mg dose, 16 to 24 hours
  Amount of Eplerenone Excreted in Urine: (366.0) mcg
  Concentration of Eplerenone Excreted in Urine: 658.0 ng/mL
1000 mg dose, −9 to 0 hours
  Amount of Eplerenone Excreted in Urine: (0) mcg
  Concentration of Eplerenone Excreted in Urine: 0 ng/mL
